Laboratory results: US12097215B2, “Antibacterial composition and its use in treating bacterial infections” (Vector Vitale IP LLC, priority 2017, dated 2024)
Marks after values point to notes of the source that are not given here.

Key:
P. aeruginosa ATCC 27859 = test: MIC of deuterium-depleted water by serial dilutions in normal saline solution; type: cell-based; settings: basic solution, 10^4, 10^6, 10^8 cells/ml; text names ATCC 27853
Protocol: (§1) The minimum inhibitory concentration (MIC) of deuterium-depleted water was determined by serial dilutions in normal saline solution. Reference strains of E. coli ATCC 25922 and P. aeruginosa ATCC 27859 were used as test cultures. For inoculation, microbial suspension equivalent to a 0.5 standard McFarland (1.5×10^8 cells/ml) was used. Then the dilutions with normal saline solution were prepared so that the concentration of microorganisms reached approximately 10^4 cells/ml. The test cultures were previously grown for 24 hours at 37° C. One-tenth of a milliliter (0.1 ml) of the suspension was placed into each test tube containing 4 ml of the medium with the investigative active substance at a certain concentration (without deuterium-depleted water in the control). The tubes were incubated in an incubator at 37° C. for 24 hours. After incubation the inoculum from each tube was plated on Mueller-Hinton agar medium for P. aeruginosa and on Endo for E. coli and incubated at 37° C. for another 24 hours. The results were evaluated based on the presence of bacterial growth (turbidity) in the nutrient broth and, if necessary, by using other additional known bacteriological tests. The first few tubes remained transparent due to the antimicrobial effect of the study substance. […] The results are shown in the table below and illustrated in FIGS. 5b and 5c.

E. coli ATCC 25922 [1] = test: as above; type: cell-based; settings: basic solution, 10^4, 10^6, 10^8 cells/ml
Protocol: as §1

P. aeruginosa ATCC 27853 [2] = test: MIC by serial dilutions in broth (visible growth); settings: for MIC: concentration of ^64Zne, Tables 1-5
Protocol: (§4) The minimum inhibitory concentration (MIC) and minimum bactericidal concentration (MBC) of the antibacterial composition enriched for the light isotope zinc ^64Zne was evaluated in the experiment. […] S. aureus ATCC 25923, E. coli ATCC 25922 and P. aeruginosa ATCC 27853 were used as test cultures.
(§5) The studies were carried out using the method of serial dilutions in broth. To determine sensitivity of microorganisms to the antibacterial composition, 0.5 ml of broth was placed into each tube. The number of tubes was determined based on the desired number of dilutions and was increased by one for the “negative” control (no test composition). Series of two-fold serial dilutions of the test variants of the antibacterial composition were used and concentrations ranging from 450 mcg ^64Zne/ml to 0.000107 mcg ^64Zne/ml were obtained.
(§6) Reference test strains of S. aureus ATCC 25923, E. coli ATCC 25922 and P. aeruginosa ATCC 27853 were incubated in Mueller-Hinton liquid broth at 37° C. for 24 hours. Standard bacterial suspension equivalent to 0.5 McFarland standard diluted 100-fold with the broth was used for the inoculation of the tubes after which the concentration of microorganism in it was approximately 10^6 CFU/ml.
(§7) 0.5 ml of inoculum was added to each tube containing 0.5 ml of the appropriate dilution of a solution of the ^64Zn-enriched salt of interest. […] The final concentration of the microorganism in each tube was approximately 5×10^5 CFU/ml.
(§8) The tubes were incubated at 35° C. in air for 16-20 or 20-24 hours (depending on the bacterial strain).
(§9) To determine the presence of microorganism growth the test tubes with inoculum were viewed under transmitted light. Transmitted light was measured by spectrophotometry. The growth of culture in the presence of antibacterial compositions based on ^64Zne was compared with the reference test tube (“negative” control), containing the original inoculum and stored in the refrigerator. The MIC was determined as the lowest concentration of ^64Zne that inhibits visible growth of the microorganism. Both gram-positive (S. aureus) and gram-negative bacteria (P. aeruginosa, E. coli) were used in the experiments described below.
(§10) That is, ^64Zne in the form of a salt was compared with a composition that contains zinc with a natural distribution of isotopes. […] Relevant samples containing salt of natural zinc with EDDA and natural zinc sulfate were used for the comparison.
(§11) The following commercial antibacterial medications were used for the study: azithromycin and ceftriaxone and norfloxacin. The initial concentration of 3000 mcg/ml was used for the samples of all the above compounds. […] Serial dilutions of the above antibacterial compounds were also prepared in the same way as for the antibacterial composition of the invention. The same pathogenic strains of S. aureus ATCC 25923, E. coli ATCC 25922, P. aeruginosa ATCC 27853 were used for the study.

P. aeruginosa ATCC 27853 [3] = test: MBC by plating tube contents on Mueller-Hinton medium; type: cell-based; settings: for MBC: Table 6
Protocol: (§2) To evaluate the bactericidal action of the antibacterial composition based on light isotope ^64Zne the minimum bactericidal concentration (MBC) was determined by plating out 0.1 ml of the contents of each tube containing the antibacterial composition on Mueller-Hinton medium. The incubation was at 37° C. for 24 h.
(§3) The MBC of the test samples was determined as the lowest concentration at which there was no growth on Mueller-Hinton agar medium.

S. aureus ATCC 25923 [4] = test: as above; type: cell-based; settings: Table 6
Protocol: as §2, §3

E. coli ATCC 25922 [5] = test: as above; type: cell-based; settings: Table 6
Protocol: as §2, §3

S. aureus ATCC 25923 [6] = test: MIC by serial dilutions in broth (visible growth); type: cell-based; settings: for MIC: concentration of ^64Zne, Tables 1-5;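 for all read-outs here: broth tubes inoculated at about 5×10^5 CFU/ml, incubated 16-24 h at 35 °C in air, growth judged by transmitted light against an unexposed refrigerated inoculum tube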
Protocol: as §4, §5, §6, §7, §8, §9, §10, §11

E. coli ATCC 25922 [7] = test: MIC by serial dilutions in broth (visible growth); type: cell-based; settings: for MIC: concentration of ^64Zne, Tables 1-5;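 for all read-outs here: broth tubes inoculated to about 5×10^5 CFU/ml, incubated at 35 °C for 16-24 h, growth judged by transmitted light versus an untreated inoculum reference tube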
Protocol: as §4, §5, §6, §7, §8, §9, §10, §11

O [deuterium-depleted water]
bactericidal effect (in words) (P. aeruginosa ATCC 27859): bactericidal effect
bactericidal effect (in words) (E. coli ATCC 25922 [1]): bactericidal effect

NC(CCC(=O)[O-])C(=O)[O-].[64Zn+2] (stereo not shown) [^64Zne glutamate]
bacteriostatic activity (in words) (P. aeruginosa ATCC 27853 [2]): best results
MIC (P. aeruginosa ATCC 27853 [2]): 0.183 µg/mL
MBC (P. aeruginosa ATCC 27853 [3]): >750 mcg ^64Zne/ml
MBC (S. aureus ATCC 25923 [4]): 0.046* mcg ^64Zne/ml
MBC (E. coli ATCC 25922 [5]): 0.37* mcg ^64Zne/ml
visible growth (S. aureus ATCC 25923 [6]; ^64Zne 0.00018 mcg/ml): +
visible growth (S. aureus ATCC 25923 [6]; ^64Zne 0.00036 mcg/ml): +
visible growth (S. aureus ATCC 25923 [6]; ^64Zne 0.00072 mcg/ml): +
visible growth (S. aureus ATCC 25923 [6]; ^64Zne 0.0014 mcg/ml): +
visible growth (S. aureus ATCC 25923 [6]; ^64Zne 0.0029 mcg/ml): +
visible growth (S. aureus ATCC 25923 [6]; ^64Zne 0.0057 mcg/ml): +
visible growth (S. aureus ATCC 25923 [6]; ^64Zne 0.011 mcg/ml): +
visible growth (S. aureus ATCC 25923 [6]; ^64Zne 0.023 mcg/ml): +
visible growth (S. aureus ATCC 25923 [6]; ^64Zne 0.046 mcg/ml): −
visible growth (S. aureus ATCC 25923 [6]; ^64Zne 0.092 mcg/ml): −
visible growth (S. aureus ATCC 25923 [6]; ^64Zne 0.18 mcg/ml): −
visible growth (S. aureus ATCC 25923 [6]; ^64Zne 0.37 mcg/ml): −
visible growth (S. aureus ATCC 25923 [6]; ^64Zne 0.73 mcg/ml): −
visible growth (S. aureus ATCC 25923 [6]; ^64Zne 1.46 mcg/ml): −
visible growth (S. aureus ATCC 25923 [6]; ^64Zne 2.93 mcg/ml): −
visible growth (S. aureus ATCC 25923 [6]; ^64Zne 5.86 mcg/ml): −
visible growth (S. aureus ATCC 25923 [6]; ^64Zne 11.72 mcg/ml): −
visible growth (S. aureus ATCC 25923 [6]; ^64Zne 23.44 mcg/ml): −
visible growth (S. aureus ATCC 25923 [6]; ^64Zne 46.88 mcg/ml): −
visible growth (S. aureus ATCC 25923 [6]; ^64Zne 93.75 mcg/ml): −
visible growth (S. aureus ATCC 25923 [6]; ^64Zne 187.5 mcg/ml): −
visible growth (S. aureus ATCC 25923 [6]; ^64Zne 375 mcg/ml): −
MIC (S. aureus ATCC 25923 [6]): 0.0458 µg/mL
visible growth (E. coli ATCC 25922 [7]; ^64Zne 0.00018 mcg/ml): +
visible growth (E. coli ATCC 25922 [7]; ^64Zne 0.00036 mcg/ml): +
visible growth (E. coli ATCC 25922 [7]; ^64Zne 0.00072 mcg/ml): +
visible growth (E. coli ATCC 25922 [7]; ^64Zne 0.0014 mcg/ml): +
visible growth (E. coli ATCC 25922 [7]; ^64Zne 0.0029 mcg/ml): +
visible growth (E. coli ATCC 25922 [7]; ^64Zne 0.0057 mcg/ml): −
visible growth (E. coli ATCC 25922 [7]; ^64Zne 0.011 mcg/ml): −
visible growth (E. coli ATCC 25922 [7]; ^64Zne 0.023 mcg/ml): −
visible growth (E. coli ATCC 25922 [7]; ^64Zne 0.046 mcg/ml): −
visible growth (E. coli ATCC 25922 [7]; ^64Zne 0.092 mcg/ml): −
visible growth (E. coli ATCC 25922 [7]; ^64Zne 0.18 mcg/ml): −
visible growth (E. coli ATCC 25922 [7]; ^64Zne 0.37 mcg/ml): −
visible growth (E. coli ATCC 25922 [7]; ^64Zne 0.73 mcg/ml): −
visible growth (E. coli ATCC 25922 [7]; ^64Zne 1.46 mcg/ml): −
visible growth (E. coli ATCC 25922 [7]; ^64Zne 2.93 mcg/ml): −
visible growth (E. coli ATCC 25922 [7]; ^64Zne 5.86 mcg/ml): −
visible growth (E. coli ATCC 25922 [7]; ^64Zne 11.72 mcg/ml): −
visible growth (E. coli ATCC 25922 [7]; ^64Zne 23.44 mcg/ml): −
visible growth (E. coli ATCC 25922 [7]; ^64Zne 46.88 mcg/ml): −
visible growth (E. coli ATCC 25922 [7]; ^64Zne 93.75 mcg/ml): −
visible growth (E. coli ATCC 25922 [7]; ^64Zne 187.5 mcg/ml): −
visible growth (E. coli ATCC 25922 [7]; ^64Zne 375 mcg/ml): −
visible growth (E. coli ATCC 25922 [7]; ^64Zne 750 mcg/ml): −
MIC (E. coli ATCC 25922 [7]): 0.0057 µg/mL

O=C([O-])CC(O)(CC(=O)[O-])C(=O)[O-].O=C([O-])CC(O)(CC(=O)[O-])C(=O)[O-].[Zn+2].[Zn+2].[Zn+2] [^64Zne citrate]
MIC (P. aeruginosa ATCC 27853 [2]): 14.062 µg/mL
bactericidal activity (in words) (P. aeruginosa ATCC 27853 [3]): satisfactory bactericidal activity
MBC (P. aeruginosa ATCC 27853 [3]): 112.5 mcg ^64Zne/ml
MBC (S. aureus ATCC 25923 [4]): 0.028* mcg ^64Zne/ml
MBC (E. coli ATCC 25922 [5]): 0.44* mcg ^64Zne/ml
visible growth (S. aureus ATCC 25923 [6]; ^64Zne 0.00011 mcg/ml): +
visible growth (S. aureus ATCC 25923 [6]; ^64Zne 0.00022 mcg/ml): +
visible growth (S. aureus ATCC 25923 [6]; ^64Zne 0.00043 mcg/ml): +
visible growth (S. aureus ATCC 25923 [6]; ^64Zne 0.00086 mcg/ml): +
visible growth (S. aureus ATCC 25923 [6]; ^64Zne 0.0017 mcg/ml): +
visible growth (S. aureus ATCC 25923 [6]; ^64Zne 0.0034 mcg/ml): +
visible growth (S. aureus ATCC 25923 [6]; ^64Zne 0.0069 mcg/ml): +
visible growth (S. aureus ATCC 25923 [6]; ^64Zne 0.014 mcg/ml): +
visible growth (S. aureus ATCC 25923 [6]; ^64Zne 0.027 mcg/ml): −
visible growth (S. aureus ATCC 25923 [6]; ^64Zne 0.055 mcg/ml): −
visible growth (S. aureus ATCC 25923 [6]; ^64Zne 0.11 mcg/ml): −
visible growth (S. aureus ATCC 25923 [6]; ^64Zne 0.22 mcg/ml): −
visible growth (S. aureus ATCC 25923 [6]; ^64Zne 0.44 mcg/ml): −
visible growth (S. aureus ATCC 25923 [6]; ^64Zne 0.88 mcg/ml): −
visible growth (S. aureus ATCC 25923 [6]; ^64Zne 1.76 mcg/ml): −
visible growth (S. aureus ATCC 25923 [6]; ^64Zne 3.52 mcg/ml): −
visible growth (S. aureus ATCC 25923 [6]; ^64Zne 7.03 mcg/ml): −
visible growth (S. aureus ATCC 25923 [6]; ^64Zne 14.06 mcg/ml): −
visible growth (S. aureus ATCC 25923 [6]; ^64Zne 28.13 mcg/ml): −
visible growth (S. aureus ATCC 25923 [6]; ^64Zne 56.25 mcg/ml): −
visible growth (S. aureus ATCC 25923 [6]; ^64Zne 112.5 mcg/ml): −
visible growth (S. aureus ATCC 25923 [6]; ^64Zne 225 mcg/ml): −
MIC (S. aureus ATCC 25923 [6]): 0.0275 µg/mL
visible growth (E. coli ATCC 25922 [7]; ^64Zne 0.00011 mcg/ml): +
visible growth (E. coli ATCC 25922 [7]; ^64Zne 0.00022 mcg/ml): +
visible growth (E. coli ATCC 25922 [7]; ^64Zne 0.00043 mcg/ml): +
visible growth (E. coli ATCC 25922 [7]; ^64Zne 0.00086 mcg/ml): +
visible growth (E. coli ATCC 25922 [7]; ^64Zne 0.0017 mcg/ml): +
visible growth (E. coli ATCC 25922 [7]; ^64Zne 0.0034 mcg/ml): +
visible growth (E. coli ATCC 25922 [7]; ^64Zne 0.0069 mcg/ml): +
visible growth (E. coli ATCC 25922 [7]; ^64Zne 0.014 mcg/ml): +
visible growth (E. coli ATCC 25922 [7]; ^64Zne 0.027 mcg/ml): −
visible growth (E. coli ATCC 25922 [7]; ^64Zne 0.055 mcg/ml): −
visible growth (E. coli ATCC 25922 [7]; ^64Zne 0.11 mcg/ml): −
visible growth (E. coli ATCC 25922 [7]; ^64Zne 0.22 mcg/ml): −
visible growth (E. coli ATCC 25922 [7]; ^64Zne 0.44 mcg/ml): −
visible growth (E. coli ATCC 25922 [7]; ^64Zne 0.88 mcg/ml): −
visible growth (E. coli ATCC 25922 [7]; ^64Zne 1.76 mcg/ml): −
visible growth (E. coli ATCC 25922 [7]; ^64Zne 3.52 mcg/ml): −
visible growth (E. coli ATCC 25922 [7]; ^64Zne 7.03 mcg/ml): −
visible growth (E. coli ATCC 25922 [7]; ^64Zne 14.06 mcg/ml): −
visible growth (E. coli ATCC 25922 [7]; ^64Zne 28.13 mcg/ml): −
visible growth (E. coli ATCC 25922 [7]; ^64Zne 56.25 mcg/ml): −
visible growth (E. coli ATCC 25922 [7]; ^64Zne 112.5 mcg/ml): −
visible growth (E. coli ATCC 25922 [7]; ^64Zne 225 mcg/ml): −
visible growth (E. coli ATCC 25922 [7]; ^64Zne 450 mcg/ml): −
MIC (E. coli ATCC 25922 [7]): 0.0275 µg/mL
